Like-named read-outs stand apart in the source and are kept apart here.

Data set [1] is described as follows: Turbidimetric kinetic aqueous solubility. Type of data set: physicochemical. The procedure: Physicochemical and ADMET properties of representative glycomimetics. […] The cells were incubated for 30 min in Hepes-buffered solution containing 10 μmol/L dihydroethidium (DHE), which intercalates with DNA in the presence of ROS and is detectable by fluorescence. Cells were counterstained with the nuclear stain DAPI at 0.3 μmol/L. In the following 24 h, the cell cultures were examined using a fluorescence microscope (Leica DMIRB). Sections were photographed and fluorescence was quantified using ImageJ. All parameters (pinhole, contrast, gain and offset) were held constant for all sections from the same experiment. ROS production was estimated from the ratio of ethidium/DAPI fluorescence.S6 Western blot analysis HepG2 wells were lysed in RIPA buffer containing proteinase inhibitors and the total protein was quantified using BCA protein assay kit (Pierce Biotechnology). Proteins (30 μg/well) were denatured and separated by sodium dodecyl sulfate (SDS)-polyacrylamide gel electrophoresis and transferred to polyvinylidene difluoride (PVDF) membranes. Blots were blocked for 1 h in 5% semi-skimmed milk/Tris-Buffered Saline Tween-20 (TBS-T), probed with primary rabbit anti-phospho-protein kinase B (Akt), rabbit anti-Akt (Santa Cruz Biotechnology), rabbit polyclonal anti-phospho-eNOS (Cell Signaling) overnight at 4 °C followed by washing and incubation with the corresponding horse radish peroxidase-labelled secondary antibody for 1 h at room temperature. After washing with TBS-T, membranes were incubated with ECL reagent and visualized (Amersham Pharmacia Biotech). Densitometry analysis using ImageJ© (version 1.32j, NIH) was used to quantify the protein signal.S7 Turbidimetric Aqueous Solubility Test compound (10 mM in DMSO) was serially diluted to give solutions of 0.1, 0.3, 1 and 3 mM in DMSO. Each test compound concentration was then further diluted 1 in 100 in buffer (typically 0.01 M phosphate buffered saline pH 7.4) so that the final DMSO concentration is 1 % and the final test compound concentrations are 1, 3, 10, 30 and 100 µM. The experiment is performed at 37 °C and each concentration is incubated in 7 replicate wells. The plates are incubated for 2 h at 37 °C before the absorbance is measured at 620nm. Nicardipine (pH dependent) and pyrene (pH independent) are included as control compounds. The solubility is estimated from the concentration of test compound that produces an increase in absorbance above vehicle control (1% DMSO in buffer). S11

Data set [2] relates to eNOS. As to the kind of experiment: eNOS phosphorylation (Western blot) in FFA-stressed cells. Type of data set: cell-based, human. Conditions: averaged % of increase (+) or decrease (−) compared to control (FFA induced oxidatively stressed endothelial cells), n = 3. An excerpt: The assays focused on the production of nitric oxide (NO) and the upregulation of nitric oxide synthase (eNOS), the production of reactive oxygen species (ROS) and the activity of nicotinamide adenine dinucleotide phosphate (NADPH) oxidase (Table 2). From the hypothesised model of heparan sulfate-glycomimetic activity,[17] the glycomimetics are proposed to attenuate the binding of HGF to the cMET receptor. This disruption to MET-receptor activation is proposed to modulate intracellular phosphorylation leading to an upregulation of eNOS and increased output of extracellular NO. […] Overall, the cross examination of NO output and reduction of ROS was used to determine the therapeutic action of the triaged glycomimetics α-4, R-10, S-10 and β-5, as well as 3 non-sulfated intermediates α-2, α-3 and β-3, on free fatty acid (FFA) induced, oxidatively stressed endothelial cell cultures (Table 2).
Biological assay and AMDET experimental details […]
Preparation of FFA-albumin complexes and cell treatments
To generate the in vitro model of oxidative stress, sodium palmitate was bound to bovine serum albumin (BSA) as outlined by Chavez and Summers,S2 with modifications. Sodium palmitate (FFA) was dissolved in EtOH at 60 °C and diluted 1:100 in M199 media supplemented with 2% fatty acid-free bovine serum albumin (BSA) and incubated for 1 h at 37 °C. HepG2 cells were treated with 1 μmol/L of the synthesized HS-glycomimetics in the presence of palmitate (100 μmol/L) for 3 h or pre-treated with glycomimetics for 12 h followed by 3 h palmitate (100 μmol/L). Control cells were incubated in serum free M199 containing 2% (wt/vol) fatty acid-free BSA. […]
HepG2 wells were lysed in RIPA buffer containing proteinase inhibitors and the total protein was quantified using BCA protein assay kit (Pierce Biotechnology). Proteins (30 μg/well) were denatured and separated by sodium dodecyl sulfate (SDS)-polyacrylamide gel electrophoresis and transferred to polyvinylidene difluoride (PVDF) membranes. Blots were blocked for 1 h in 5% semi-skimmed milk/Tris-Buffered Saline Tween-20 (TBS-T), probed with primary rabbit anti-phospho-protein kinase B (Akt), rabbit anti-Akt (Santa Cruz Biotechnology), rabbit polyclonal anti-phospho-eNOS (Cell Signaling) overnight at 4 °C followed by washing and incubation with the corresponding horse radish peroxidase-labelled secondary antibody for 1 h at room temperature. After washing with TBS-T, membranes were incubated with ECL reagent and visualized (Amersham Pharmacia Biotech). Densitometry analysis using ImageJ© (version 1.32j, NIH) was used to quantify the protein signal.S7 […]
(typically 0.01 M phosphate buffered saline pH 7.4) so that the final DMSO concentration is 1 % and the final test compound concentrations are 1, 3, 10, 30 and 100 µM. The experiment is performed at 37 °C and each concentration is incubated in 7 replicate wells. The plates are incubated for 2 h at 37 °C before the absorbance is measured at 620nm. Nicardipine (pH dependent) and pyrene (pH independent) are included as control compounds. The solubility is estimated from the concentration of test compound that produces an increase in absorbance above vehicle control (1% DMSO in buffer).

Where [3] appears, read: phosphate buffered saline, turbidimetric assay, PBS pH 7.4, 37 °C, 2 h, read-out: Kinetic solubility.

Usually solubility (kinetic) stands for the concentration staying in solution when a stock, usually in DMSO, is diluted into the medium. Turning to `COC(=O)c1cc(OC[C@H](COS(=O)(=O)[O-])OS(=O)(=O)[O-])ccc1OCCCCOS(=O)(=O)[O-].[Na+].[Na+].[Na+]` [Compound R-10, sodium (R)-3-(3-(methoxycarbonyl)-4-(4-(sulfonatooxy)butoxy)phenoxy)propane-1,2-diyl bis(sulfate)], the solubility (kinetic) at 2 h in data set [1] (setting [3]) was over 100 µM. Besides, in data set [2], the eNOS phosphorylation entry was “+613%”.
For `COC(=O)c1cc(OC[C@@H](COS(=O)(=O)[O-])OS(=O)(=O)[O-])ccc1OCC(COS(=O)(=O)[O-])OS(=O)(=O)[O-].[Na+].[Na+].[Na+].[Na+]` (mixture of isomers) [α-4, sodium 3-(4-((S)-2,3-bis(sulfonatooxy)propoxy)-2-(methoxycarbonyl)phenoxy)propane-1,2-diyl bis(sulfate)] the same measures were over 100 µM and “+342%”.
On to `COC(=O)c1cc(OC[C@@H](COS(=O)(=O)[O-])OS(=O)(=O)[O-])ccc1OCCCCOS(=O)(=O)[O-].[Na+].[Na+].[Na+]` [Compound S-10, sodium (S)-3-(3-(methoxycarbonyl)-4-(4-(sulfonatooxy)butoxy)phenoxy)propane-1,2-diyl bis(sulfate)], for which the solubility (kinetic) at 2 h in data set [1] (pH 7.4) was over 100 µM. Moreover, in data set [2], the eNOS phosphorylation entry was “+397%”.
For `O=C([O-])c1cc(OC[C@H](COS(=O)(=O)[O-])OS(=O)(=O)[O-])ccc1OCC(COS(=O)(=O)[O-])OS(=O)(=O)[O-].[Na+].[Na+].[Na+].[Na+].[Na+]` (mixture of isomers) [β-5, sodium 5-((R)-2,3-bis(sulfonatooxy)propoxy)-2-(2,3-bis(sulfonatooxy)propoxy)benzoate], the kinetic solubility at 2 h in data set [1] (setting [3]) was over 100 µM. The eNOS phosphorylation result in data set [2] was “+318%”.

The values are drawn from article PMC8152814, “The modulatory role of sulfated and non-sulfated small molecule heparan sulfate-glycomimetics in endothelial dysfunction: absolute structural clarification, molecular docking and simulated dynamics, SAR analyses and ADMET studies” (RSC Medicinal Chemistry, 2021).
